# Values of other authors, collected in patent US20030013726A1 (priority 2000, published 2003).
# Tested on: patients with disorders of initiating sleep
smiles,measurement,setting,value
CCN(C(C)=O)c1cccc(-c2ccnc3c(C#N)cnn23)c1 [zaleplon],sleep stages 3 and 4 (delta sleep and deep sleep),clinical studies,not impaired
same,effectiveness for patients with disorders of initiating sleep,"clinical study on more than 3 700 patients in the USA, Canada and Europe, including elderly people 65-85 years",very effective
same,sleep latency estimated both by polysomnography and subjectively,"compared with placebo, clinical studies",significantly reduced
